According to patent US20140057895A1, “INDAZOLE- AND PYRROLOPYRIDINE-DERIVATIVE AND PHARMACEUTICAL USE THEREOF” (priority 2011, published 2014):

Tests used:
[1] = target: T1, human 5-HT4b receptor (Homo sapiens, UniProt Q13639); assay: Test Example 4: Serotonin 4 (5-HT4) receptor agonist activity assay, cAMP HTRF in CHO cells (Table 100); format: cell-based; conditions: mean value; for Emax: CHO, 0.25 h, intrinsic activity, maximal activity of 5-HT defined as 100%, read-out: IA (%); for EC50: concentration showing 50% of IA
T1 construct: expressed in transfected cells; host or cells: CHO cells (G418 selection)
T1 sequence (Q13639 whole entry): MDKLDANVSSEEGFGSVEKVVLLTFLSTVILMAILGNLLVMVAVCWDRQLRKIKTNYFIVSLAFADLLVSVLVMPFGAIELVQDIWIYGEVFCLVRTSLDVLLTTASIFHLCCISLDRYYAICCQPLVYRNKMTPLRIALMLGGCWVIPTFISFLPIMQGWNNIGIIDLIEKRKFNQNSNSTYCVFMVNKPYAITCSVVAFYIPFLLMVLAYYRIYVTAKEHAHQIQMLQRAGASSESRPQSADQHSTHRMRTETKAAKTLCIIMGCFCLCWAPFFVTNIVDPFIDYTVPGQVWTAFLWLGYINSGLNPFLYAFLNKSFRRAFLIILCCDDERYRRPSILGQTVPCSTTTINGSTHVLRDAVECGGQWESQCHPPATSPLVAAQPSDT
How it was run: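 CHO cells expressing human 5-HT4b receptor, serum-reduced for 1–2 h, were suspended in Hanks/HEPES pH 7.4 and exposed to compound for 15 min at 31° C. cAMP detected by HTRF (cryptate/d2, 1 h RT, 620/665 nm). EC50 and intrinsic activity relative to maximal 5-HT response (10^−11 to 10^−7 M) set at 100%.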

[2] = target: T2, Human 5-HT4 receptor (5-HT4b) (Homo sapiens, UniProt Q13639); assay: Test Example 3: Human 5-HT4 receptor binding assay, membranes of CHO-K1 cells stably expressing 5-HT4b receptors (Table 99); conditions: mean value of each group
T2 construct: expressed in transfected cells; membrane preparation
T2 sequence (Q13639 whole entry): as above
Description: To an assay tube were added 0.1 nM [^3H]-GR113808 {chemical name: [1-[2-(methylsulfonylamino) ethyl]-4-piperidinyl]methyl 1-methylindole-3-carboxylate}, receptor membrane preparations, and Hepes buffer (50 mM, pH 7.4, 4° C., 1 ml) containing test compounds or 30 μM serotonin; and the mixture was incubated at 37° C. for 30 minutes. On quenching the reaction, the mixture was rapidly filtered on whatman GF/B filter, which was presoaked in 0.1% polyethyleneimine for 1 hour, by using Brandel cell Harvester, and washed with ice-cooled 50 mM Tris-HCl (pH 7.7, 4 ml) three times. To the filter after filtration was added a liquid scintillator (Ecoscint), and then a radioactivity was determined by a liquid scintillation counter.
50% Inhibition concentrations (IC50) were determined from inhibition rates of test compounds to specific bindings which were obtained by subtracting nonspecific bindings from total binding amounts of [^3H]-GR113808.
Human 5-HT4 receptor membrane preparations were prepared from CHO-K^1 cells which stably express 5-HT4b receptors, and human 5-HT4 receptor binding assay was carried out in a similar manner as in the guinea pig 5-HT4 receptor binding assay. The following tables show results of serotonin 4 (5-HT4) receptor binding assay. In the following tables, the compounds used in the test are shown in numbers which correspond to the Example numbers above where the preparations of the compounds are described.

Emax [1]	EC50 [1]	IC50 [2]	Compound
97%	2.6 nM	< 20 nM	CC(=O)N1CC[C@H](NC2CC(c3nc(-n4nc(C(C)C)c5cccc(F)c54)no3)C2)C1 (stereo partly drawn) [Example 591, 1-{(3S)-3-[(3-{3-[7-fluoro-3-(propan-2-yl)-1H-indazol-1-yl]-1,2,4-oxadiazol-5-yl}cyclobutyl)amino]pyrrolidin-1-yl}ethanone]
70%	8.5 nM	< 20 nM	CC(=O)N1CC[C@@H](CN2CC[C@@H](Cc3nc(-n4nc(C(C)C)c5cccc(F)c54)no3)C2)C1 [Example 515]
		29.7 nM	CC(C)c1nn(-c2noc(C3CCN(C4C5CCCC4CN(C(=O)CO)C5)CC3)n2)c2c(F)cccc12 (stereo not drawn) [Example 535, 1-[(9-anti)-9-(4-{3-[7-fluoro-3-(propan-2-yl)-1H-indazol-1-yl]-1,2,4-oxadiazol-5-yl}piperidin-1-yl)-3-azabicyclo[3.3.1]non-3-yl]-2-hydroxyethanone]
		96.8 nM	CC(C)c1nn(-c2noc(C3CCN(C4CCS(=O)(=O)CC4)CC3)n2)c2c(F)cccc12 [Example 444, 1-{5-[1-(1,1-dioxidotetrahydro-2H-thiopyran-4-yl)piperidin-4-yl]-1,2,4-oxadiazol-3-yl}-7-fluoro-3-(propan-2-yl)-1H-indazole]
		225 nM	CC(C)c1nn(-c2noc(C3CCN(C(C)(C)C(=O)OC(C)(C)C)CC3)n2)c2c(F)cccc12 [Example 400, tert-butyl 2-(4-{3-[7-fluoro-3-(propan-2-yl)-1H-indazol-1-yl]-1,2,4-oxadiazol-5-yl}piperidin-1-yl)-2-methylpropanoate]
		123 nM	CC(=O)N1CCCC(N[C@H]2CC[C@@H](c3nc(-n4nc(C(C)C)c5cccc(F)c54)no3)CC2)C1 (relative stereo) [Example 622, 1-{3-[(cis-4-{3-[7-fluoro-3-(propan-2-yl)-1H-indazol-1-yl]-1,2,4-oxadiazol-5-yl}cyclohexyl)amino]piperidin-1-yl}ethanone]
		< 20 nM	CC(C)c1nn(-c2noc(C3CC(NCC4CCCOC4)C3)n2)c2c(F)cccc12 (centres unmarked) [Example 601, 3-{3-[7-fluoro-3-(propan-2-yl)-1H-indazol-1-yl]-1,2,4-oxadiazol-5-yl}-N-{tetrahydro-2H-pyran-3-ylmethyl)cyclobutanamine]
		< 20 nM	COc1nn(-c2noc(C3CCN(C4CCN(C(C)=O)CC4)CC3)n2)c2c(F)cccc12 [Example 624, 1-{4-[3-(7-fluoro-3-methoxy-1H-indazol-1-yl)-1,2,4-oxadiazol-5-yl]-1,4′-bipiperidin-1′-yl}ethanone]
		< 20 nM	CC(C)c1nn(-c2noc(C3CC(NCCC4CCOC4)C3)n2)c2c(F)cccc12 (centres unmarked) [Example 599, 3-{3-[7-fluoro-3-(propan-2-yl)-1H-indazol-1-yl]-1,2,4-oxadiazol-5-yl}-N-[2-(tetrahydrofuran-3-yl)ethyl]cyclobutanamine]
		< 20 nM	CC(C)c1nn(-c2noc(C3CC(NCC4CCOC4)C3)n2)c2c(F)cccc12 (centres unmarked) [Example 608, 3-{3-[7-fluoro-3-(propan-2-yl)-1H-indazol-1-yl]-1,2,4-oxadiazol-5-yl}-N-(tetrahydrofuran-3-ylmethyl)cyclobutanamine]
		27.4 nM	COCCN(C1CCOCC1)[C@H]1C[C@H](c2nc(-n3nc(C(C)C)c4cccc(F)c43)no2)C1 [Example 615, N-(trans-3-{3-[7-fluoro-3-(propan-2-yl)-1H-indazol-1-yl]-1,2,4-oxadiazol-5-yl}cyclobutyl)-N-(2-methoxyethyl)tetrahydro-2H-pyran-4-amine]
		69.4 nM	COCCNC1CCC(c2nc(-n3nc(C(C)C)c4cccc(F)c43)no2)CC1 (centres unmarked) [Example 621, 4-{3-[7-fluoro-3-(propan-2-yl)-1H-indazol-1-yl]-1,2,4-oxadiazol-5-yl}-N-(2-methoxyethyl)cyclohexanamine]
		25.2 nM	CC(C)Cc1nn(-c2noc(C3CCN(C4CCN(C(=O)CO)CC4)CC3)n2)c2c(F)cccc12 [Example 526, 1-(4-{3-[7-fluoro-3-(2-methylpropyl)-1H-indazol-1-yl]-1,2,4-oxadiazol-5-yl}-1,4′-bipiperidin-1′-yl)-2-hydroxyethanone]
		< 20 nM	CC(C)c1nn(-c2noc(C3CC(NCC4CCCCO4)C3)n2)c2c(F)cccc12 (centres unmarked) [Example 602, 3-{3-[7-fluoro-3-(propan-2-yl)-1H-indazol-1-yl]-1,2,4-oxadiazol-5-yl}-N-(tetrahydro-2H-pyran-2-ylmethyl)cyclobutanamine]
		55 nM	Cc1cccc2c1c(C(C)C)nn2-c1noc(C2CCN(C3CCOCC3)CC2)n1 [Example 424, 4-methyl-3-(propan-2-yl)-1-{5-[1-(tetrahydro-2H-pyran-4-yl)piperidin-4-yl]-1,2,4-oxadiazol-3-yl}-1H-indazole]
		28.6 nM	CC(C)c1nn(-c2noc(C3CC(NCCC4CCOCC4)C3)n2)c2c(F)cccc12 (centres unmarked) [Example 603, 3-{3-[7-fluoro-3-(propan-2-yl)-1H-indazol-1-yl]-1,2,4-oxadiazol-5-yl}-N-[2-(tetrahydro-2H-pyran-4-yl)ethyl]cyclobutanamine]
		20.2 nM	CC(C)c1nn(-c2noc(C3CCN(CCc4cccnc4)CC3)n2)c2c(F)cccc12 [Example 399, 7-fluoro-3-(propan-2-yl)-1-(5-{1-[2-(pyridin-3-yl)ethyl]piperidin-4-yl}-1,2,4-oxadiazol-3-yl)-1H-indazole]
		52.1 nM	CCOC(=O)N1CCC(N2CCC(c3nc(-n4nc(C(C)C)c5cccc(F)c54)no3)CC2)C(OC)C1 (centres unmarked) [Example 556, ethyl 4-{3-[7-fluoro-3-(propan-2-yl)-1H-indazol-1-yl]-1,2,4-oxadiazol-5-yl}-3′-methoxy-1,4′-bipiperidine-1′-carboxylate]
		< 20 nM	CC(C)c1nn(-c2noc(C3CC(NCCC4CCCOC4)C3)n2)c2c(F)cccc12 (centres unmarked) [Example 604, 3-{3-[7-fluoro-3-(propan-2-yl)-1H-indazol-1-yl]-1,2,4-oxadiazol-5-yl}-N-[2-(tetrahydro-2H-pyran-3-yl)ethyl]cyclobutanamine]
		105 nM	CC(C)c1nn(-c2noc([C@H]3CC[C@@H](NC4CCCOC4)CC3)n2)c2c(F)cccc12 (relative stereo) [Example 623, N-(cis-4-{3-[7-fluoro-3-(propan-2-yl)-1H-indazol-1-yl]-1,2,4-oxadiazol-5-yl}cyclohexyl)tetrahydro-2H-pyran-3-amine]
		26.9 nM	CC(C)c1nn(-c2noc([C@H]3C[C@@H](NCCC4CCCCO4)C3)n2)c2c(F)cccc12 (relative stereo) [Example 597, cis-3-{3-[7-fluoro-3-(propan-2-yl)-1H-indazol-1-yl]-1,2,4-oxadiazol-5-yl}-N-[2-(tetrahydro-2H-pyran-2-yl)ethyl]cyclobutanamine]
		39.2 nM	CC(C)c1nn(-c2noc(C3CCC(NCCC4CCCOC4)CC3)n2)c2c(F)cccc12 (centres unmarked) [Example 619, 4-{3-[7-fluoro-3-(propan-2-yl)-1H-indazol-1-yl]-1,2,4-oxadiazol-5-yl}-N-[2-(tetrahydro-2H-pyran-3-yl)ethyl]cyclohexanamine]
		< 20 nM	CC(C)c1nn(-c2noc([C@H]3C[C@H](NCCC4CCCCO4)C3)n2)c2c(F)cccc12 (relative stereo) [Example 598, trans-3-{3-[7-fluoro-3-(propan-2-yl)-1H-indazol-1-yl]-1,2,4-oxadiazol-5-yl}-N-[2-(tetrahydro-2H-pyran-2-yl)ethyl]cyclobutanamine]
		< 20 nM	COCCCNC1CC(c2nc(-n3nc(C(C)C)c4cccc(F)c43)no2)C1 (centres unmarked) [Example 609, 3-{3-[7-fluoro-3-(propan-2-yl)-1H-indazol-1-yl]-1,2,4-oxadiazol-5-yl}-N-(3-methoxypropyl)cyclobutanamine]
		< 20 nM	COCCN(CC1CCOCC1)C1CC(c2nc(-n3nc(C(C)C)c4cccc(F)c43)no2)C1 (centres unmarked) [Example 613, 3-{3-[7-fluoro-3-(propan-2-yl)-1H-indazol-1-yl]-1,2,4-oxadiazol-5-yl}-N-(2-methoxyethyl)-N-{tetrahydro-2H-pyran-4-ylmethyl)cyclobutanamine]
		86.7 nM	CC(C)c1nn(-c2noc(C3CC(NC4COC4)C3)n2)c2c(F)cccc12 (centres unmarked) [Example 606, N-(3-{3-[7-fluoro-3-(propan-2-yl)-1H-indazol-1-yl]-1,2,4-oxadiazol-5-yl}cyclobutyl)oxetan-3-amine]
		< 20 nM	CC(C)c1nn(-c2noc([C@H]3CC[C@H](NCC4CCCO4)CC3)n2)c2c(F)cccc12 (relative stereo) [Example 620, trans-4-{3-[7-fluoro-3-(propan-2-yl)-1H-indazol-1-yl]-1,2,4-oxadiazol-5-yl}-N-(tetrahydrofuran-2-ylmethyl)cyclohexanamine]
		< 20 nM	CC(=O)N1CC[C@@H](NC2CC(c3nc(-n4nc(C(C)C)c5cccc(F)c54)no3)C2)C1 (stereo partly drawn) [Example 592, 1-{(3R)-3-[(3-{3-[7-fluoro-3-(propan-2-yl)-1H-indazol-1-yl]-1,2,4-oxadiazol-5-yl}cyclobutyl)amino]pyrrolidin-1-yl}ethanone]
